Data on three molecules can be found in publication PMC8163145 (Chemical Science, 2020).

Data set [1] has as its system LHPP. The conditions noted are these: pH 8.2, in the presence of 1 mM MgCl2; LHPP isolated from bovine liver; cited from earlier work.
Data set [2] concerns the target T1, LHPP (Homo sapiens, UniProt Q9H008).
T1 sequence (Q9H008 1-270): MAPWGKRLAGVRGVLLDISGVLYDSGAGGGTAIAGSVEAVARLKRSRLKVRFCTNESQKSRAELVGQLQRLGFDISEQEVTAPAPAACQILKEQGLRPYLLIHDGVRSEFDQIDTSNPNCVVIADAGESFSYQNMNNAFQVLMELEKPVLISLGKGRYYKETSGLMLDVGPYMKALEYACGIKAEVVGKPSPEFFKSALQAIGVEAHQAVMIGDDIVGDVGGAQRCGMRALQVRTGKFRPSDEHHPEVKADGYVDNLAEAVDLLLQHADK
In kind it is biochemical.

For data set [3] the following is noted: 60 °C, neutral pH; cited from earlier work.

In the case of `O=P(O)(O)OP(=O)(O)O` [PPi, pyrophosphate], the “released phosphate (LHPP activity)” value in the data set with LHPP [1] was 0.11 µmol/min/mg.

Consider `N[C@@H](CCCCNP(=O)(O)O)C(=O)O` [Substrate 1a, N6-phosphono-L-lysine], for which the enzymatically hydrolyzed substrate on LHPP [2] (100 μM 1a, 0.25 μg LHPP, 200 μL, after 60 minutes, background subtracted) is “roughly 50%”. Also, at LHPP [2] (100 μM substrate, 200 μL 50 mM Tris–HCl, 1 mM MgCl2, pH 7.8, 0.25 μg LHPP (0.037 μM)), the “hydrolysis rate by LHPP” value turned out to be 0.88 µmol/min/mg. For the same molecule, the half-life time result in data set [3] is reported as “less than 1 h”.

Consider `O=P(O)(O)NP(=O)(O)O` [PNP, imidodiphosphate], for which the “released phosphate (LHPP activity)” value in the data set with LHPP [1] is 0.44 µmol/min/mg.
